From patent US6358885B1, “Substituted phenylheterocyclic herbicides” (Mississippi State University, priority 1992, dated 2002)

Columns and labels:
rice [1] = experiment: Test C flood test plant response rating 0 to 100; type: in vivo, Oryza sativa; settings: for Plant response rating Rice Japonica: flood test species listed under POSTEMERGENCE, 0 to 100 scale
Summary of the method: (§1)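 Compounds in non-phytotoxic solvent applied preemergence to sandy loam one day after planting, postemergence at the 1–4 leaf stage, or to ~2.5 cm floodwater over silt loam.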

blackgrass = experiment: Test C preemergence/postemergence greenhouse plant response rating 0 to 100; type: in vivo, Alopecurus myosuroides; settings: POSTEMERGENCE; for Plant response rating, Blackgrass: 0 to 100 scale
Summary of the method: (§2)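 Compounds in non-phytotoxic solvent went onto sandy loam before emergence (seeded one day earlier) or onto plants at the one-to-four leaf stage. Duck salad was treated via flood water (~2.5 cm, maintained) over silt loam.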

rape = experiment: as above; type: in vivo, Brassica napus; settings: POSTEMERGENCE; for Plant response rating, Rape: 0 to 100 scale
Summary of the method: as §2

wild oat = experiment: Test B preemergence/postemergence greenhouse plant response rating 0 to 10; type: in vivo, Avena fatua; settings: 0 to 10 scale
Summary of the method: (§3)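 Both application timings were run together: seeds got compound preemergence, and established seedlings (two to eighteen cm) got it postemergence. Non-phytotoxic solvent carried the chemical. Ratings are visual, versus controls, at twelve to sixteen days.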

barnyardgrass = experiment: as above; type: in vivo, Echinochloa crus-galli; settings: 0 to 10 scale
Summary of the method: as §3

cotton = experiment: as above; type: in vivo, Gossypium hirsutum; settings: 0 to 10 scale
Summary of the method: as §3

crabgrass = experiment: Test C preemergence/postemergence greenhouse plant response rating 0 to 100; type: in vivo, Digitaria sanguinalis; settings: POSTEMERGENCE; for Plant response rating, Crabgrass: 0 to 100 scale
Summary of the method: as §2

rice [2] = experiment: Test B preemergence/postemergence greenhouse plant response rating 0 to 10; type: in vivo, Oryza sativa; settings: 0 to 10 scale
Summary of the method: as §3

sorghum = experiment: as above; type: in vivo, Sorghum bicolor; settings: 0 to 10 scale
Summary of the method: as §3

cocklebur = experiment: as above; type: in vivo, Xanthium pensylvanicum; settings: 0 to 10 scale
Summary of the method: as §3

umbrella sedge = experiment: Test C flood test plant response rating 0 to 100; type: in vivo, Cyperus difformis; settings: for Plant response rating Umbrella sedge: flood test species listed under POSTEMERGENCE, 0 to 100 scale
Summary of the method: as §1

morningglory = experiment: Test B preemergence/postemergence greenhouse plant response rating 0 to 10; type: in vivo, Ipomoea hederacea; settings: 0 to 10 scale
Summary of the method: as §3

wheat = experiment: as above; type: in vivo, Triticum aestivum; settings: 0 to 10 scale
Summary of the method: as §3

[3] = POSTEMERGENCE section, flood test, Rate 4 g/ha
[4] = Rate 16 g/ha, under POSTEMERGENCE head (flood test species)

SMILES: Fc1cc(Cl)c(OCCCl)cc1-c1nn2c(c1Cl)CCCC2 [Compound 49]
- Plant response rating (0 to 100), Rice Japonica (rice [1]; [3]): 10
- Plant response rating (0 to 100), Rice Japonica (rice [1]; [4]): 30
- Plant response rating Rice Japonica (rice [1]; 62 g/ha): 50
- Plant response rating Rice Japonica (rice [1]; 250 g/ha): 60
- Plant response rating, Blackgrass (blackgrass; 62 g/ha): 50
- Plant response rating, Blackgrass (blackgrass; 250 g/ha): 70
- Plant response rating (0 to 100), Blackgrass (blackgrass; Rate 4 g/ha): 10
- Plant response rating (0 to 100), Blackgrass (blackgrass; Rate 16 g/ha): 40
- Plant response rating, Rape (rape; 62 g/ha): 70
- Plant response rating, Rape (rape; 250 g/ha): 100
- Plant response rating (0 to 100), Rape (rape; Rate 4 g/ha): 50
- Plant response rating (0 to 100), Rape (rape; Rate 16 g/ha): 60
- Plant response rating, Wild oat (wild oat; POSTEMERGENCE, Rate 50 g/ha): 3
- Plant response rating, Wild oat (wild oat; PREEMERGENCE, Rate 50 g/ha): 0
- Plant response rating, Wild oat (wild oat; Rate 200 g/ha, POSTEMERGENCE): 4
- Plant response rating, Barnyardgrass (barnyardgrass; POSTEMERGENCE, Rate 50 g/ha): 3
- Plant response rating, Barnyardgrass (barnyardgrass; POSTEMERGENCE, Rate 200 g/ha): 7
- Plant response rating, Barnyardgrass (barnyardgrass; PREEMERGENCE, Rate 50 g/ha): 0
- Plant response rating, Barnyardgrass (barnyardgrass; Rate 200 g/ha, PREEMERGENCE): 5
- Plant response rating, Cotton (cotton; POSTEMERGENCE, Rate 50 g/ha): 10
- Plant response rating, Cotton (cotton; POSTEMERGENCE, Rate 200 g/ha): 10
- Plant response rating, Cotton (cotton; PREEMERGENCE, Rate 50 g/ha): 2
- Plant response rating, Cotton (cotton; Rate 200 g/ha, PREEMERGENCE): 2
- Plant response rating, Crabgrass (crabgrass; 62 g/ha): 20
- Plant response rating, Crabgrass (crabgrass; 250 g/ha): 40
- Plant response rating (0 to 100), Crabgrass (crabgrass; Rate 4 g/ha): 10
- Plant response rating (0 to 100), Crabgrass (crabgrass; Rate 16 g/ha): 10
- Plant response rating, Rice (rice [2]; POSTEMERGENCE, Rate 50 g/ha): 5
- Plant response rating, Rice (rice [2]; PREEMERGENCE, Rate 50 g/ha): 0
- Plant response rating, Rice (rice [2]; Rate 200 g/ha, POSTEMERGENCE): 6
- Plant response rating, Rice (rice [2]; Rate 200 g/ha, PREEMERGENCE): 0
- Plant response rating, Sorghum (sorghum; POSTEMERGENCE, Rate 50 g/ha): 3
- Plant response rating, Sorghum (sorghum; PREEMERGENCE, Rate 50 g/ha): 0
- Plant response rating, Sorghum (sorghum; Rate 200 g/ha, POSTEMERGENCE): 5
- Plant response rating, Sorghum (sorghum; Rate 200 g/ha, PREEMERGENCE): 1
- Plant response rating, Cocklebur (cocklebur; POSTEMERGENCE, Rate 50 g/ha): 9
- Plant response rating, Cocklebur (cocklebur; POSTEMERGENCE, Rate 200 g/ha): 8
- Plant response rating, Cocklebur (cocklebur; PREEMERGENCE, Rate 50 g/ha): 0
- Plant response rating, Cocklebur (cocklebur; Rate 200 g/ha, PREEMERGENCE): 0
- Plant response rating (0 to 100), Umbrella sedge (umbrella sedge; [3]): 40
- Plant response rating (0 to 100), Umbrella sedge (umbrella sedge; [4]): 70
- Plant response rating Umbrella sedge (umbrella sedge; 62 g/ha): 90
- Plant response rating Umbrella sedge (umbrella sedge; 250 g/ha): 95
- Plant response rating, Morningglory (morningglory; POSTEMERGENCE, Rate 50 g/ha): 10
- Plant response rating, Morningglory (morningglory; PREEMERGENCE, Rate 50 g/ha): 1
- Plant response rating, Morningglory (morningglory; Rate 200 g/ha, POSTEMERGENCE): 10
- Plant response rating, Morningglory (morningglory; Rate 200 g/ha, PREEMERGENCE): 6
- Plant response rating, Wheat (wheat; POSTEMERGENCE, Rate 50 g/ha): 5
- Plant response rating, Wheat (wheat; PREEMERGENCE, Rate 50 g/ha): 0
- Plant response rating, Wheat (wheat; Rate 200 g/ha, POSTEMERGENCE): 4
- Plant response rating, Wheat (wheat; Rate 200 g/ha, PREEMERGENCE): 2
